# Experimental data published in patent US8003655B2, “Substituted sulphoximines as TIE2 inhibitors and salts thereof, pharmaceutical compositions comprising same, methods of preparing same and uses of same” (Bayer Schering Pharma AG, priority 2006, dated 2011).
# What was measured:
# Type in all cases: biochemical
# [1] = target: T1, Tie2 (Homo sapiens, UniProt Q02763); test: Tie2-Kinase HTRF-Assay without kinase preactivation (assay 2); settings: 10 μM ATP, pIC50 = −log IC50 in molar concentration, read-out: Tie 2 activity (assay 2)
# T1 construct: A recombinant fusion protein of GST and the intracellular domains of Tie2; GST; made in house; host or cells: insect cells (Hi-5)
# Text: Tie2-inhibitory activity of compounds of the present invention was quantified employing two Tie2 HTRF assay as described in the following paragraphs.
# A recombinant fusion protein of GST and the intracellular domains of Tie2, expressed in insect cells (Hi-5) and purified by Glutathion-Sepharose affinity chromatography was used as kinase. Alternatively, commercially available GST-Tie2-fusion protein (Upstate Biotechnology, Dundee, Scotland) can be used as substrate for the kinase reaction the biotinylated peptide biotin-Ahx-EPKDDAYPLYSDFG (C-terminus in amid form) was used which can be purchased e.g. from the company Biosynthan GmbH (Berlin-Buch, Germany). Detection of phosphorylated product is achieved specifically by a trimeric detection complex consisting of the phosphorylated substrate, streptavidin-XLent (SA-XLent) which binds to biotin, and Europium Cryptate-labeled anti-phosphotyrosine antibody PT66 which binds to phosphorylated tyrosine.
# Tie2 (3.5 ng/measurement point) was incubated for 60 min at 22° C. in the presence of 10 μM adenosine-tri-phosphate (ATP) and 1 μM substrate peptide (biotin-Ahx-EPKDDAYPLYSDFG-NH2) with different concentrations of test compounds (0 μM and concentrations in the range 0.001-20 μM) in 5 μl assay buffer [50 mM Hepes/NaOH pH 7, 10 mM MgCl2, 0.5 mM MnCl2, 1.0 mM dithiothreitol, 0.01% NP40, protease inhibitor mixture (“Complete w/o EDTA” from Roche, 1 tablet per 2.5 ml), 1% (v/v) dimethylsulfoxide]. The reaction was stopped by the addition of 5 μl of an aqueous buffer (25 mM Hepes/NaOH pH 7.5, 0.28% (w/v) bovine serum albumin) containing EDTA (90 mM) and the HTRF (Homogeneous Time Resolved Fluorescence) detection reagents streptavidine-XLent (0.2 μM, from Cis Biointernational, Marcoule, France) and PT66-Eu-Chelate (0.3 ng/μl; a europium-chelate labelled anti-phospho-tyrosine antibody from Perkin Elmer).
# (§1) The resulting mixture was incubated 1 h at 22° C. to allow the binding of the biotinylated phosphorylated peptide to the streptavidine-XLent and the PT66-Eu-Chelate. Subsequently the amount of phosphorylated substrate peptide was evaluated by measurement of the resonance energy transfer from the PT66-Eu-Chelate to the streptavidine-XLent. Therefore, the fluorescence emissions at 620 nm and 665 nm after excitation at 350 nm was measured in a HTRF reader, e.g. a Rubystar (BMG Labtechnologies, Offenburg, Germany) or a Viewlux (Perkin-Elmer). The ratio of the emissions at 665 nm and at […] was taken as the measure for the amount of phosphorylated substrate peptide. The data were normalised (enzyme reaction without inhibitor=0% inhibition, all other assay components but no enzyme=100% inhibition) and IC50 values were calculated by a 4 parameter fit using an inhouse software.
# [2] = target: T2, preactivated Tie2 (Homo sapiens, UniProt Q02763); test: Tie2-Kinase HTRF-Assay with kinase preactivation (assay 3); settings: 10 μM ATP, pIC50 = −log IC50 in molar concentration, read-out: Tie 2 activity (assay 3)
# T2 construct: A recombinant fusion protein of GST and the intracellular domains of Tie2; GST; made in house; host or cells: insect cells (Hi-5)
# Experimental: Assay 3: Tie2-Kinase HTRF-Assay with Kinase Preactivation
# A recombinant fusion protein of GST and the intracellular domains of Tie2, expressed in insect cells (Hi-5) and purified by Glutathion-Sepharose affinity chromatography was used as kinase. As substrate for the kinase reaction the biotinylated peptide biotin-Ahx-EPKDDAYPLYSDFG (C-terminus in amid form) was used which can be purchased e.g. from the company Biosynthan GmbH (Berlin-Buch, Germany).
# For activation, Tie2 was incubated at a conc. 12.5 ng/μl of for 20 min at 22° C. in the presence of 250 μM adenosine-tri-phosphate (ATP) in assay buffer [50 mM Hepes/NaOH pH 7, 10 mM MgCl2, 0.5 mM MnCl2, 1.0 mM dithiothreitol, 0.01% NP40, protease inhibitor mixture (“Complete w/o EDTA” from Roche, 1 tablet per 2.5 ml)].
# For the subsequent kinase reaction, the preactivated Tie2 (0.5 ng/measurement point) was incubated for 20 min at 22° C. in the presence of 10 μM adenosine-tri-phosphate (ATP) and 1 μM substrate peptide (biotin-Ahx-EPKDDAYPLYSDFG-NH2) with different concentrations of test compounds (0 μM and concentrations in the range 0.001-20 μM) in 5 μl assay buffer [50 mM Hepes/NaOH pH 7, 10 mM MgCl2, 0.5 mM MnCl2, 0.1 mM sodium ortho-vanadate, 1.0 mM dithiothreitol, 0.01% NP40, protease inhibitor mixture (“Complete w/o EDTA” from Roche, 1 tablet per 2.5 ml), 1% (v/v) dimethylsulfoxide]. The reaction was stopped by the addition of 5 μl of an aqueous buffer (25 mM Hepes/NaOH pH 7.5, 0.28% (w/v) bovine serum albumin) containing EDTA (90 mM) and the HTRF (Homogeneous Time Resolved Fluorescence) detection reagents streptavidine-XLent (0.2 μM, from Cis Biointernational, Marcoule, France) and PT66-Eu-Chelate (0.3 ng/μl; a europium-chelate labelled anti-phospho-tyrosine antibody from Perkin Elmer).
# as §1
# [3] = target: T3, CDK2/CycE (Homo sapiens, UniProt P24941); test: CDK2 HTRF Assay (assay 4); settings: 10 μM ATP, pIC50 = −log IC50 in molar concentration
# T3 construct: GST; purchased ProQinase GmbH (Freiburg, Germany); host or cells: insect cells (Sf9)
# Text: CDK2/CycE-inhibitory activity of compounds of the present invention was quantified employing the CDK2/CycE HTRF assay as described in the following paragraphs.
# Recombinant fusion proteins of GST and human CDK2 and of GST and human CycE, expressed in insect cells (Sf9) and purified by Glutathion-Sepharose affinity chromatography, were purchase from ProQinase GmbH (Freiburg, Germany). As substrate for the kinase reaction biotinylated peptide biotin-Ttds-YISPLKSPYKISEG (C-terminus in amid form) was used which can be purchased e.g. form the company JERINI peptide technologies (Berlin, Germany).
# CDK2/CycE was incubated for 60 min at 22° C. in the presence of different concentrations of test compounds in 5 μl assay buffer [50 mM Tris/HCl pH 8.0, 10 mM MgCl2, 1.0 mM dithiothreitol, 0.1 mM sodium ortho-vanadate, 10 μM adenosine-tri-phosphate (ATP), 0.75 μM substrate, 0.01% (v/v) Nonidet-P40 (Sigma), 1% (v/v) dimethylsulfoxide]. The concentration of CDK2/CycE was adjusted depending of the activity of the enzyme lot and was chosen appropriate to have the assay in the linear range, typical concentrations were in the range of 1 ng/ml. The reaction was stopped by the addition of 5 μl of a solution of HTRF detection reagents (0.2 μM streptavidine-XLent and 3.4 nM Phospho-(Ser) CDKs Substrate Antibody [product #2324B, Cell Signalling Technology, Danvers, Mass., USA} and 4 nM Prot-A-EuK [Protein A labeled with Europium Cryptate from Cis biointernational, France, product no. 61PRAKLB]) in an aqueous EDTA-solution (100 mM EDTA, 800 mM KF, 0.2% (w/v) bovine serum albumin in 100 mM HEPES/NaOH pH 7.0).
# T2 sequence (Q02763 770-1124 limits assumed): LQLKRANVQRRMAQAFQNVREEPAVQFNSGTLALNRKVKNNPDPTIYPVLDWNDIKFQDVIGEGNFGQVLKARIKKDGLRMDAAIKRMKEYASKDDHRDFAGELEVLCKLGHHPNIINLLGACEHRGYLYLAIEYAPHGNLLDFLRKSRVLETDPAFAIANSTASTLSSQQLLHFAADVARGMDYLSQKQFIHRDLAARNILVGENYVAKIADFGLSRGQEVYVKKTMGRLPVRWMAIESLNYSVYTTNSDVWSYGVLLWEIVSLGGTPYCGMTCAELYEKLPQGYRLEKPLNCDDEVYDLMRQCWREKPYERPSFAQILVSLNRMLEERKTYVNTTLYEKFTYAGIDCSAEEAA
# T1 sequence (Q02763 770-1124 limits assumed): as above
SMILES,IC50 [1] [µM],IC50 [2] [µM],IC50 [3] [µM]
"CCOC(=O)N=S(C)(=O)c1cccc(Nc2ncc(-c3ccc(NS(=O)(=O)c4cccc(Cl)c4Cl)c(F)c3)c(N[C@H](C)CO)n2)c1 (mixture of isomers) [Example 13, 2,3-Dichloro-N-{4-[2-({3-[(RS)-N-(ethoxycarbonyl)-S-methylsulfonimidoyl]phenyl}amino)-4-{[(R)-2-hydroxy-1-methylethyl]amino}-pyrimidin-5-yl]-2-fluorophenyl}-benzenesulfonamide]",0.1 to 1,0.1 to 1,> 10
"CCOC(=O)N=S(C)(=O)c1cccc(Nc2ncc(-c3ccc(NC(=O)Nc4cc(C(F)(F)F)ccc4F)c(F)c3)c(OC)n2)c1 (racemic) [Example 31, 1-{4-[2-({3-[(RS)-N-(Ethoxycarbonyl)-S-methylsulfonimidoyl]phenyl}amino)-4-(methoxy)-pyrimidin-5-yl]-2-fluorophenyl}-3-[2-fluoro-5-(trifluoromethyl)-phenyl]urea]",< 0.1,< 0.1,> 10
"CCOC(=O)N=S(C)(=O)c1cccc(Nc2ncc(-c3ccc(NC(=O)C4(c5ccccc5)CC4)cc3)c(N[C@H](C)CO)n2)c1 (mixture of isomers) [Example 9, N-{4-[2-({3-[(RS)-N-(Ethoxycarbonyl)-S-methylsulfonimidoyl]phenyl}amino)-4-{[(R)-2-hydroxy-1-methylethyl]amino}-pyrimidin-5-yl]phenyl}-1-phenylcyclopropane-carboxamide]",0.1 to 1,0.1 to 1,> 10
"COc1nc(Nc2cccc(S(C)(=N)=O)c2)ncc1-c1ccc(NC(=O)Nc2cc(C(F)(F)F)ccc2F)c(F)c1 (racemic) [Example 45, 1-[2-Fluoro-4-(4-methoxy-2-{[3-(RS)-(S-methylsulfon-imidoyl)phenyl]-amino}pyrimidin-5-yl)phenyl]-3-[2-fluoro-5-(trifluoromethyl)phenyl]urea]",< 0.1,< 0.1,> 10
"C[C@H](CO)Nc1nc(Nc2cccc(S(C)(=N)=O)c2)ncc1-c1ccc(NS(=O)(=O)c2cccc(Cl)c2Cl)c(F)c1 (mixture of isomers) [Example 42, 2,3-Dichloro-N-[2-fluoro-4-(4-{[(R)-2-hydroxy-1-methylethyl]amino}-2-{[3-(RS)-(S-methylsulfonimidoyl)phenyl]amino}-pyrimidin-5-yl)phenyl]benzene-sulfonamide]",0.1 to 1,< 0.1,> 10
"COc1nc(Nc2cccc(S(C)(=N)=O)c2)ncc1-c1ccc(NS(=O)(=O)c2cccc(Cl)c2Cl)c(F)c1 (racemic) [Example 46, 2,3-Dichloro-N-[2-fluoro-4-(4-methoxy-2-{[3-(RS)-(S-methylsulfonimidoyl)phenyl]amino}pyrimi-din-5-yl)phenyl]benzenesul-fonamide]",0.1 to 1,0.1 to 1,> 10

# Continued, values first:
IC50 [1] [µM],IC50 [2] [µM],IC50 [3] [µM],SMILES
< 0.1,< 0.1,> 10,"CNc1nc(Nc2cccc(S(C)(=N)=O)c2)ncc1-c1ccc(NC(=O)Nc2cc(C(F)(F)F)ccc2F)c(F)c1 (racemic) [Example 49, 1-{2-Fluoro-4-[4-(methylamino)-2-{[3-(RS)-(S-methylsulfonimidoyl)phenyl]amino}-pyrimidin-5-yl]phenyl}-3-[2-fluoro-5-(trifluoromethyl)-phenyl]urea]"
< 0.1,0.1 to 1,> 10,"C[C@H](CO)Nc1nc(Nc2cccc(S(C)(=N)=O)c2)ncc1-c1ccc(NC(=O)C2(c3ccccc3)CC2)cc1 (mixture of isomers) [Example 33, N-{4-[4-{[(R)-2-Hydroxy-1-methylethyl]amino}-2-({3-[(RS)-S-methylsulfonimidoyl]phenyl}amino)pyrimidin-5-yl]phenyl}-1-phenylcyclopropanecarboxamide]"
< 0.1,< 0.1,> 10,"CS(=N)(=O)c1cccc(Nc2ncc(-c3ccc(NC(=O)Nc4cc(C(F)(F)F)ccc4F)c(F)c3)c(NCCCN3CCOCC3)n2)c1 (racemic) [Example 43, 1-[2-Fluoro-4-(2-{[3-(RS)-(S-methylsulfonimidoyl)phenyl]amino}-4-[(3-morpholin-4-ylpropyl)amino]-pyrimidin-5-yl)phenyl]-3-[2-fluoro-5-(trifluoromethyl)-phenyl]urea]"
< 0.1,< 0.1,> 10,"CCOC(=O)N=S(C)(=O)c1ccc(Nc2ncc(-c3ccc(NC(=O)Nc4cccc(C(F)(F)F)c4)cc3)c(N[C@H](C)CO)n2)cc1 (mixture of isomers) [Example 7, 1-{4-[2-({4-[(RS)-N-(Ethoxycarbonyl)-S-methylsulfonimidoyl]phenyl}amino)-4-{[(R)-2-hydroxy-1-methylethyl]amino}-pyrimidin-5-yl]-phenyl}-3-[3-(trifluoromethyl)-phenyl]urea]"
< 0.1,0.1 to 1,> 10,"CCOC(=O)N=S(C)(=O)c1cccc(Nc2ncc(-c3ccc(NC(=O)Nc4cc(C(F)(F)F)ccc4F)c(F)c3)c(NCCN3CCN(C)CC3)n2)c1 (racemic) [Example 28, 1-{4-[2-({3-[(RS)-N-(Ethoxycarbonyl)-S-methylsulfonimidoyl]phenyl}amino)-4-{[2-(N-methyl-piperazin-4-yl)ethyl]amino}pyri-midin-5-yl]-2-fluorophenyl}-3-[2-fluoro-5-(trifluoromethyl)-phenyl]urea]"
